The record followed here is patent US8597646B2, “Methods and compositons featuring TGF-beta antagonists for the treatment of marfan syndrome and associated disorders” (The Johns Hopkins University, priority 2005, dated 2013).

Molecules are shown by their SMILES. “Also recorded” adds a separate entry of the source.

What all share (assay type): in vivo, mouse
For test [1], the system named is Fbn1C1039G/+ mice. The experiment in a line: Postnatal treatment with losartan and propranolol, aorta of Fbn1C1039G/+ mice. Conditions: for Aortic root growth rate: during 6 months of treatment. The text has this: However, before treatment, the aortic diameter in Fbn1C1039G/+ mice was always greater than in untreated wild-type mice (1.59±0.11 mm; P<0.002).
Three independent aortic root measurements were obtained for each mouse every 2 months during the 6 months of treatment. Mice were killed at 8 months of age. […] The aortic root growth rate over this period was less in the wild-type mice than in the placebo-treated Fbn1C1039G/+ mice (P<0.0001, FIG. 21I).

The test system of test [2] is TGFβ signaling cascade (TSP1, pSmad2, periostin). The experiment in a line: Immunofluorescent analysis of proteins downstream of angiotensin II type 1 receptor in mdx muscle. Conditions: monopotassium salt. As to the method: Immunofluorescent studies were performed as previously described (Cohn, R. D. et al. (2002) Cell 110, 639-48). […] The following antibodies were used in this study: goat polyclonal anti-pSmad 2/3, rabbit polyclonal anti c-met and rabbit polyclonal anti-myogenin (all from Santa Cruz Biotechnology Inc.); rabbit polyclonal anti-pSmad2 (#3104, Cell Signal) rat polyclonal anti-lamininyl, rabbit polyclonal anti-dystrophin, rabbit polyclonal antithrombospondin-1 and rabbit polyclonal anti-periostin (all from Abcam); rabbit polyclonal anti-fibrillin-1 (pAb 9543) (Judge, D. P. et al. (2004) J Clin Invest 114, 172-81); goat polyclonal anti-vimentin (Sigma) and, mouse monoclonal anti-beta-sarcoglycan mouse monoclonal anti-developmental myosin (Novocastra). Anti a-dystroglycan antibody IIH6 was generously supplied by Dr. Kevin Campbell, Iowa. Secondary Alexa fluor donkey anti-rabbit, anti-rat, anti mouse IgM and IgG1 and anti-goat conjugated antibodies (Molecular probes) were applied for 1 hour at room temperature. Nuclei were stained with DAPI for 5 minutes, and inverted coverslips were mounted onto glass slides using Cytoseal (Vector Laboratories).
It has recently been shown that thrombospondin-1 (TSP1) acts as a potent mediator of angiotensin II induced TGF-beta activation via AT I R (Zhou Y, et al. (2006) Biochem Biophys Res Commun. 339, 633-641). […] Therefore, the expression of dystrophin, a-dystroglycan and R-sarcoglycan in losartan-treated and untreated mdx mice was investigated.

Test [3] deals with Fbn1C1039G/+ mice. Description: Lung distal airspace caliber (mean linear intercept) in Fbn1C1039G/+ mice treated postnatally with losartan. Conditions: for Distal airspace caliber / alveolar septation, in words: postnatal losartan, monopotassium salt. The text has this: This abnormality correlated with increased TGF-β signaling and was prevented by prenatal administration of TGF-β NAb.

Test [4] concerns Fbn1C1039G/+ mice. The experiment in a line: Steady-state skeletal muscle architecture and fiber cross sectional area in Fbn1C1039G/+ mice. Conditions: for Steady-state muscle architecture, in words: fibrillin-1 deficient mice, monopotassium salt. As for the experimental part:
Wild-type and Fbn1^C1039G/+ mice received intraperitoneal injections of TGFβ-neutralizing antibody (R&D Systems, once every two weeks) starting at 7 weeks of age. The antibody was diluted in PBS (pH 7.4) and administered at a dose of 1 mg/kg or 10 mg/kg body weight. Rabbit IgG (10 mg/kg; Zymed Laboratories Inc.) was administered in a similar fashion as a negative control. Mice were sacrificed after 2 months of treatment and a minimum of 6 mice per genotype were used for histologic and morphometric analyses.
Mice were continued on oral therapy for 6 months and sacrificed. […] Age-matched wild-type and mdx mice (placebo-treated) served as a control group. After 6 months of treatment, forelimb and hindlimb grip strength was assessed using an automated grip strength meter (Columbus Instruments, Columbus, Ohio). The experiments for forelimb and hindlimb grip strength testing were conducted at different days allowing for a minimum recovery period of 10 days. Total peak force (in Newtons) was determined by an electronic strain gauge as previously described and corrected for body weight (Wagner, K. R., et al. (2002) Ann Neurol 52, 832-6). Five measurements within 2 minutes were taken from each animal. […] The degree of fatigue was calculated by comparing the first two pulls to the last two pulls with the decrement between pulls 1+2 and pulls 4+5 providing a measure of fatigue. […]
For morphometric analyses, skeletal muscle was flash frozen in cooled isopentane and mounted in Tragacanth (Sigma Aldrich, USA). […] Muscle fibers were counted in a defined area (9 mm^2) of the tibialis anterior muscle of 10-day-old wild-type (n=3) and Fbn1C1039G/C1039G mice (n=6) and fiber diameter was determined by measuring the shortest fiber axis within cross-sections of the tibialis anterior muscle, counting a total of 850-1500 fibers. The cross sectional area of undamaged and regenerating myofibers of the tibialis anterior muscle from wild-type and Fbn1^C1039G/+ mice was expressed as a distribution of the percentage of the total number of myofibers analyzed (850-1500) (Horsley, V. et al (2003) Cell 113, 483-94). […]

Setting [5] is: 6 months of treatment, monopotassium salt.

In the case of `CCCCc1nc(Cl)c(CO)n1Cc1ccc(-c2ccccc2-c2nnn[nH]2)cc1.[K]` [losartan, 2-butyl-4-chloro-1-[p-(o-1H-tetrazol-5-ylphenyl)benzyl]imidazole-5-methanol monopotassium salt], the “Aortic wall / elastic fiber architecture” value in test [1] (setting [5]) is reported as “full normalization relative to wild-type mice”. The Aortic wall thickness entry in test [1] (setting [5]) was “full normalization relative to wild-type mice; also recorded: indistinguishable from that seen in wild-type mice”. Moreover, the “Aortic root growth rate” value in test [1] (listed as Losartan, monopotassium salt) is given as “normalizes growth rate”; in test [1] (monopotassium salt) it was “indistinguishable from that in the wild-type group”. The “Elastic fiber fragmentation (VVG staining)” value in test [1] (from 7 weeks of age, 6 months, drinking water, monopotassium salt) is “prevented elastic fiber fragmentation; also recorded: Elastic lamellae are intact”. The “TGF-β signaling in aortic media (nuclear pSmad2)” value in test [1] (from 7 weeks of age, 6 months, monopotassium salt) is reported as “blunted TGF-β signaling; also recorded: Nuclear pSmad2 staining is decreased”. Besides, in test [1] (versus untreated wild-type littermates), the “Absolute diameter of the aortic root at the end of treatment” value is “similar”. The “Expression of thrombospondin-1 (TSP1)” value in test [2] (mdx diaphragm and other muscles) is given as “greatly reduced expression of TSP1”. Further, the “Dystrophin, a-dystroglycan, sarcoglycan expression / ubiquitin mediated proteolysis” value in test [2] (mdx mice) is on record as “did not have any impact; also recorded: absent”. Moreover, the “Nuclear accumulation of pSmad2 and sarcolemmal expression of periostin” value in test [2] (mdx mice) was “did not show any significant nuclear accumulation of pSmad2 or sarcolemmal expression of periostin; also recorded: diminished”. For the same molecule, in test [3] (losartan from 7 weeks of age, 6 months, placebo 84.3±15, wild-type 41.3±5), the Mean linear intercept came out at 53.9±12 μm. The “Distal airspace caliber / alveolar septation, in words” value in test [3] (listed as Losartan) was “rescued; also recorded: normalization of the caliber of the distal airspace”; in test [3], “reduced”. For the same molecule, the “Steady-state muscle architecture, in words” value in test [4] (listed as Losartan) was “rescued; also recorded: normalized”; in test [4], “fully normalized”. Moreover, the “Mean fiber size (muscle fiber cross sectional area)” value in test [4] (steady state, postnatal losartan, untreated 1746±39, wild-type 2741±69) is on record as 2527±58 μm^2.
